Laboratory results taken from patent US20120142730A1 (priority 2010, published 2012).

Tested on: subjects with relapsing remitting multiple sclerosis (RRMS)
Assay: ALLEGRO phase III trial: MRI endpoints (lesions, brain volume, MTR, 1H-MRS)
Format: in vivo, human
Parameters: key to BA from M12 to M24: percent change of brain volume (SIENA); Change in average MTR of T2 visible lesions / T2 volume / Hypointense T1 volume / GdE volume: unit not given here
Conditions: for BA at month 12, reduction / BA (brain atrophy, percent brain volume change) at month 12: baseline to 12 months
Procedure: Eligible subjects were equally randomized 1:1 into one of the following treatment arms: • 1. […] 21, 2007 (see, page 10, line 5 to page 11, line 3). • 2. Matching placebo for laquinimod arm: one capsule is administered once daily. MRI related secondary endpoints were the cumulative number of GdE lesions at months 12 and 24; and the cumulative number of new T2 lesions (relative to previous scan) at months 12 and 24; MRI exploratory endpoints included percent change of brain volume using SIENA.^10 Additional MRI methodological details are as follows: In all patients, MRI scans were performed at 0, 12, and 24 months. Before a site could enrol study participants they were required to image a volunteer patient with definite MS twice with repositioning according to a strict study imaging protocol using scanners with a minimum field strength of 1.5T. Fast/turbo spin echo (repetition time [TR]=2200-3500 ms, echo time [TE]=14-50/90-120 ms, echo train length=2-7, slice thickness=3 mm, and contiguous axial slices= • 44) sequences were used to obtain proton density and T2-weighted images. High resolution pre-contrast 3D T1-weighted sequences (TR=8-15 ms, TE=3-5 ms, inversion time=1.1 s, number of slices 160, slice thickness 1.2 mm, flip angle [FA]=10-15, orientation sagittal) were acquired for quantification of brain atrophy. Finally, T1-weighted images (1.5 T scanners: conventional spin echo sequence; TR=600-650 ms, TE=10-20 ms, slice thickness=3 mm, and contiguous axial slices=44; 3.0 T scanners: 3D sequence; TR=5-9 ms, TE=2-5 ms, FA=15, slice thickness=3 mm, and contiguous axial slices=44) were obtained 5 minutes after injection of 0.1 mmol/kg of gadolinium. A series of axial, coronal, and sagittal images was obtained to create an axial reference scan for subsequent careful repositioning of each patient at the follow-up session. Axial slices were positioned to run parallel to a line joining the most inferioanterior and inferioposterior parts of the corpus callosum. Image quality was reviewed at the MRI-AC using predetermined criteria. The identification of GdE and T2-hyperintense lesions was done by consensus of two experienced observers. The number of total and new GdE lesions and new/enlarging T2-hyperintense lesions were counted. The identified lesions were then outlined by trained technicians using a semiautomated segmentation technique based on local thresholding (Jim 4.0; […] System, Leicester, UK) and lesion volumes were calculated automatically. Percentage brain volume changes and cross-sectional normalized brain volumes were measured on […] T1-weighted images, with Structural Image Evaluation of Normalized Atrophy (SIENA) software and a cross-sectional method ([…]) (available from the FMRIB Software Library, Oxford University, Oxford, UK; http://www.fmrib.ox.ac.uk/analysis/research/[…]). Analyses of the secondary MRI endpoints of the cumulative number of GdE and new/enlarging T2 lesions at 12 and 24 months involved a baseline-adjusted negative binomial regression with an “offset” employing the log of the relative exposure to adjust for early-terminated patients. The model included as covariates the number of enhancing lesions at baseline, and country or geographical region. In the case of new/enlarging T2 lesion analysis, the baseline T2 lesion volume was also added. […] The analysis of the brain atrophy endpoint involved a baseline-adjusted analysis of covariance (ANCOVA). The covariates were the number of GdE lesions at baseline and the country or region. The exploratory endpoints were all analyzed at a significance level of 5%. Secondary endpoints of the ALLEGRO trial included disease activity as measured by MRI, including counts of Gadolinium enhancing T1 lesions and new-T2 hyperintense lesions. […] Conventional MRI scans for new T1 hypointense lesions, and brain volume using SIENA were performed at baseline, 12 and 24 months. […]

[1] = 0.6 mg daily oral vs placebo, listed as laquinimod
[2] = 0.6 mg daily oral, listed as laquinimod
[3] = post-hoc, not naïve, vs placebo

## CCN(C(=O)c1c(O)c2c(Cl)cccc2n(C)c1=O)c1ccccc1 [Laquinimod, laquinimod]
0.6 mg daily oral
  Cumulative new Hypointense T1 lesions months 12 + 24, mean: 1.468
  Cumulative number of GdE lesions at months 12 and 24, mean: 1.332
  Cumulative number of GdE lesions at months 12 and 24, median: 0.00
  Cumulative number of new/enlarging T2 lesions at 12 and 24 months, mean: 5.032
  BA (brain atrophy, percent brain volume change) at month 12: −0.358%
0.6 mg daily oral vs placebo
  Cumulative new Hypointense T1 lesions months 12 + 24, reduction: 27% reduction
  Cumulative number of new/enlarging T2 lesions at 12 and 24 months, reduction: 30% reduction
  Percent change of brain volume baseline to month 24, reduction in brain atrophy: 32.8% reduction
  Percent change of brain volume from baseline to month 24, adjusted mean difference: 0.426
  BA at month 12, reduction: 53% reduction
[1]
  BA at month 12, reduction: 51.7%
  Cumulative new Hypointense T1 lesions months 12 + 24, reduction: 26.7%
  Cumulative number of new/enlarging T2 lesions at 12 and 24 months, reduction: 30%
  Percent change of brain volume baseline to month 24, reduction in brain atrophy: 32.8%
0.6 mg daily oral, SIENA
  Percent change of brain volume from baseline to month 24, adjusted mean change: −0.871%
[2]
  BA (brain atrophy, percent brain volume change) at month 12: −0.358%
  Cumulative new Hypointense T1 lesions months 12 + 24, mean: 1.47
1H-MRS subgroup, n=12
  Adjusted mean change in NAA/Cr from baseline to month 24: 0.087
MT MRI subgroup, n=43
  Change in average MTR of T2 visible lesions: −0.005
MT MRI subgroup, n=44
  Change in mean MTR whole brain from baseline to last observed value (LOV): +0.045
MT MRI subgroup, p=0.0180
  Change in mean MTR whole brain baseline to LOV, difference from placebo: 0.483
MT MRI subgroup, p=0.1007
  Change in average MTR of T2 visible lesions, difference from placebo: 0.330
Baseline to month 24
  Hypointense T1 volume, change BL to M24: 7%^
  T2 volume, change BL to M24: 11.5%^
Month 12
  Hypointense T1 volume: 2.805
  T2 volume: 8.005
Month 12, vs placebo
  Hypointense T1 volume, effect: ~1%
  T2 volume, effect: 5%
Month 24
  Hypointense T1 volume: 2.829
  T2 volume: 8.111
Month 24, vs placebo
  Hypointense T1 volume, effect: ~1%
  T2 volume, effect: 5%
post-hoc
  BA for pts with all scans, change BL to M12: −0.337
  BA for pts with all scans, change BL to M24: −0.855
  BA from M12 to M24: −0.548
post-hoc, GdE = 0
  % BV change M24: −0.859%
post-hoc, GdE = 0, vs placebo
  % BV change M24, reduction: 30% reduction
post-hoc, GdE > 0
  % BV change M24: −0.881%
post-hoc, GdE > 0, vs placebo
  % BV change M24, reduction: 37% reduction
post-hoc, M12
  GdE counts: 0.731
  GdE lesion free: 69% ^
  GdE volume: 1.058
  New T2 lesion #: 2.81
  New-T1 Hypointense Lesions: 1.074
  T1 Hypointense Lesion free: 56.3% ^
  T2 lesion free: 30.8% ^
post-hoc, M12, vs placebo
  GdE counts, reduction: 36% reduction
  GdE lesion free, effect on odds: 49% odds
  GdE volume, effect: 4.5%
  New T2 lesion #, effect: 33.5%
  New-T1 Hypointense Lesions, reduction: 27% reduction
  T1 Hypointense Lesion free, effect on odds: 28% odds
  T2 lesion free, effect on odds: 39% odds
post-hoc, M24
  GdE counts: 0.482
  GdE lesion free: 74.5% ^
  GdE volume: 1.045
  New T2 lesion #: 4.45
  New-T1 Hypointense Lesions: 1.230
  T1 Hypointense Lesion free: 52.8% ^
  T2 lesion free: 20.3% ^
post-hoc, M24, vs placebo
  GdE counts, reduction: 39% reduction
  GdE lesion free, effect on odds: 72% odds
  GdE volume, effect: 4.7%
  New T2 lesion #, effect: 31.5%
  New-T1 Hypointense Lesions, reduction: 32% reduction
  T1 Hypointense Lesion free, effect on odds: 47% odds
  T2 lesion free, effect on odds: 40% odds
post-hoc, MRI free NO
  % BVC BL to M24: −1.001%
post-hoc, MRI free NO, vs placebo
  % BVC BL to M24, effect: 65.5%
post-hoc, MRI free YES
  % BVC BL to M24: −0.533%
post-hoc, MRI free YES, vs placebo
  % BVC BL to M24, effect: 45.5%
post-hoc, naïve
  % BV change by previous medications: −0.82%
  Cum # T1 GdE by previous medications: 1.135
  Cum New T2 by previous medications: 4.967
  T1 hypointense by previous medications: 1.585
post-hoc, naïve, vs placebo
  % BV change by previous medications, reduction: 38% reduction
  Cum # T1 GdE by previous medications, reduction: 42% reduction
  Cum New T2 by previous medications, reduction: 33% reduction
  T1 hypointense by previous medications, reduction: 28% reduction
post-hoc, not naive
  Cum # T1 GdE by previous medications: 1.746
post-hoc, not naive, vs placebo
  Cum # T1 GdE by previous medications, reduction: 32% reduction
post-hoc, not naïve
  % BV change by previous medications: −0.954%
  Cum New T2 by previous medications: 5.075
  T1 hypointense by previous medications: 1.217
[3]
  % BV change by previous medications, reduction: 23% reduction
  Cum New T2 by previous medications, reduction: 24% reduction
  T1 hypointense by previous medications, reduction: 25% reduction
post-hoc, vs placebo
  BA for pts with all scans, change BL to M12, effect: 60%
  BA for pts with all scans, change BL to M24, effect: 57%
